{
  "source": "patent US6187552A",
  "about": "“Method for identifying inhibitors of JAK2/cytokine receptor binding” (Pharmacia & Upjohn Company, priority 1998, dated 2001)",
  "test_system": "βc in human eosinophils",
  "assay": "Tyrosine phosphorylation of βc in human eosinophils stimulated with IL-5 (immunoblot)",
  "type": "cell-based",
  "conditions": "FIG. 2",
  "method": "Eosinophils were isolated from human whole blood or granulocyte leukapheresis packs obtained from Pharmacia and Upjohn Clinical Research Unit--Kalamazoo, Mich. Only blood from donors who had >5% peripheral blood eosinophils was used, while leukapheresis donors usually had 3-5% eosinophils. One unit of whole blood was divided among 50-ml polypropylene centrifuge tubes and centrifuged for 20 minutes at 300×g at room temperature (RT). The plasma was removed and 50 ml were centrifuged at 2500×g for 15 minutes at RT to remove platelets. The resulting platelet poor plasma (ppp) was diluted 1:4 in normal saline.\nImmediately after purification, eosinophils were resuspended at 2×10^7 cells/ml in RPMI 1640 medium (GibcoBRL, Gaithersburg, Md.) supplemented with 1% fetal bovine serum (FBS, GibcoBRL, Gaithersburg,Md.) and incubated 2 min at 37°. Recombinant human IL-5 (Biosource, Camarillo, Calif.) diluted in PBS with 0.1% bovine serum albumin was added at 12.5 ng/ml for various times using 1×10^7 cells per data point. Tubes were placed on ice and 10 volumes of PBS with 0.1 mM sodium orthovanadate were added to each tube. Eosinophils were pelleted by centrifugation at 300×g and resuspended in 0.6 ml lysis buffer (20 mM Tris-Cl, pH 7.4, 100 mM NaCl, 10 mM sodium pyrophosphate, 2 mM EDTA, 50 mM NaF, 1 mM sodium orthovanadate, 3% Triton X-100) with protease inhibitors (10 μg/ml aprotinin, 10 μg/ml leupeptin, and 0.2 mM phenylmethylsulfonyl fluoride).\nAfter incubation on ice for 15 min, debris was pelleted by centrifugation at 16,000×g. βc was immunoprecipitated from the lysate by rotating overnight at 4° with a 1:300 dilution of anti-βcantibody (Upstate Biotechnology, Lake Placid, N.Y.). Twenty microliters of protein A-Sepharose (Pharmacia Biotech, Uppsala, Sweden) were added to each lysate, and the incubation was continued one hour. […]",
  "data": [
    {"substance": "IL-5: Recombinant human IL-5 (Biosource)", "values": [
      {"measurement": "time of peak tyrosine phosphorylation of βc", "setting": "12.5 ng/ml human IL-5, 37° C.", "value": "5 to 10", "unit": "min"},
      {"measurement": "time to tyrosine phosphorylation of βc", "setting": "12.5 ng/ml human IL-5, 37° C.", "value": "≤ 1", "unit": "min"},
      {"measurement": "time by which dephosphorylation was evident", "setting": "12.5 ng/ml human IL-5, continued presence", "value": "≤ 30", "unit": "min"}
    ]}
  ]
}
